# Experimental data: patent US11814367B2, “Inhibitors of glycogen synthase 1 (GYS1) and methods of use thereof” (Maze Therapeutics, Inc., priority 2021, dated 2023)
# Biological target: hGYS1 enzyme (recombinant hGYS1/GN1 protein) (Homo sapiens (Human), UniProt P13807)
# Assay: GYS1 coupled enzyme assay (PK/LDH)
# Format: biochemical
# Details: hGYS1/GN1 50 nM, UDP-Glucose 0.8 mM, G6P 1 mM; geometric mean of at least 2 runs
# hGYS1 enzyme (recombinant hGYS1/GN1 protein), sequence (P13807 whole entry): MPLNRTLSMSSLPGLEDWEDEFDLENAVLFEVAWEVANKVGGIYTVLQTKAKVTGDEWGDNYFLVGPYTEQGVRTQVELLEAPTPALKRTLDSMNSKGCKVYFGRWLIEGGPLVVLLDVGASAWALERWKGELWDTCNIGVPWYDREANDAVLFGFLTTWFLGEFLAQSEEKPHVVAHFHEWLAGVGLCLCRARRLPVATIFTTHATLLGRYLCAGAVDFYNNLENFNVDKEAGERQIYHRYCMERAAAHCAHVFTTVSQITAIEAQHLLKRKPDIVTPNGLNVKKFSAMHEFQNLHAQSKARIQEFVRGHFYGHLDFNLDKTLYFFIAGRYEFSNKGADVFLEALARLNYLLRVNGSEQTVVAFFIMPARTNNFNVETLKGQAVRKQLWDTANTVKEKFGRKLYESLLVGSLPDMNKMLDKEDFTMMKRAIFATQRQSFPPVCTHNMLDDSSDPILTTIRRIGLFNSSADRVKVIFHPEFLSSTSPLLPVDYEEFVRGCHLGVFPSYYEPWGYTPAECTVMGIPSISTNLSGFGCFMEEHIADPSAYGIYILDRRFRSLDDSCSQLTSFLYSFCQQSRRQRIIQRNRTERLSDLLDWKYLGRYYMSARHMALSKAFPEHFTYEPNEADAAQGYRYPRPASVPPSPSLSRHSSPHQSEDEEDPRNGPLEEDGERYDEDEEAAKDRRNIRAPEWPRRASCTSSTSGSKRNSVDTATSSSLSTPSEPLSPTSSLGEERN
# hGYS1 enzyme (recombinant hGYS1/GN1 protein), sequence (P46976 whole entry partner): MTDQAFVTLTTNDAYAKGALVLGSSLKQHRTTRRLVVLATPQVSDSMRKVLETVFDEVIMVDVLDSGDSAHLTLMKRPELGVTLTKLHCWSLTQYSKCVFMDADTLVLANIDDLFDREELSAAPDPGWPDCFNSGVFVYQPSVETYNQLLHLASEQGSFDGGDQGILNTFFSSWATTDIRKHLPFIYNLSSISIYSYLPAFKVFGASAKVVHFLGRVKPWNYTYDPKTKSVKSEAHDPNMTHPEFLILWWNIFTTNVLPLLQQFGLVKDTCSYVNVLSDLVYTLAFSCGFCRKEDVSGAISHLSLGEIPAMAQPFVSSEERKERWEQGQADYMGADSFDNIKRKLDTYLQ
row,Compound,IC50 [µM]
1,"O=C(N[C@@H](c1ccccc1)c1ccc(C2CC2)c(F)c1)[C@@H]1[C@H]2C[C@H]2CN1C(=O)Cc1cnn[nH]1 [Compound 440, (1S,2S,5R)-N-[(S)-(4-cyclopropyl-3-fluorophenyl)(phenyl)methyl]-3-[2-(1H-1,2,3-triazol-5-yl)acetyl]-3-azabicyclo[3.1.0] hexane-2-carboxamide]",0.447
2,"CC(C)c1ccc([C@@H](NC(=O)[C@@H]2C[C@@H](F)CN2C(=O)c2ccc3c(c2)NC(=O)CO3)c2ccccc2)cc1 [Compound 122, (2S,4R)-4-fluoro-1-(3-oxo-3,4-dihydro-2H-1,4-benzoxazine-6-carbonyl)-N-[(S)-phenyl[4-(propan-2-yl)phenyl]methyl]pyrrolidine-2-carboxamide]",0.989
3,"O=C(N[C@@H](c1ccccc1)c1ccc(C2CC2)c(F)n1)[C@@H]1[C@H](O)[C@@H](F)CN1C(=O)Cn1nnnc1C(F)F [Compound 764, (2S,3S,4S)-N-[(S)-(5-cyclopropyl-6-fluoropyridin-2-yl)(phenyl)methyl]-1-{2-[5-(difluoromethyl)-1H-1,2,3,4-tetrazol-1-yl]acetyl}-4-fluoro-3-hydroxypyrrolidine-2-carboxamide]",0.155
4,"CC(Cn1cncn1)C(=O)N1C[C@H](F)C[C@H]1C(=O)N[C@@H](c1ccccc1)c1ccc(C(C)C)cc1 (stereo partly drawn) [Compound 120, (2S,4R)-4-fluoro-1-[2-methyl-3-(1H-1,2,4-triazol-1-yl)propanoyl]-N-[(S)-phenyl[4-(propan-2-yl)phenyl]methyl]pyrrolidine-2-carboxamide]",0.343
5,"CC(=O)N1[C@@H]2C[C@@H]2C[C@H]1C(=O)N[C@@H](c1ccccc1)c1ccc(C(C)C)cc1 [Compound 200, (1R,3S,5R)-2-acetyl-N-[(S)-phenyl[4-(propan-2-yl)phenyl]methyl]-2-azabicyclo[3.1.0]hexane-3-carboxamide]",4.42
6,"CC(=O)N1C2CCC1CC(C(=O)N1C[C@H](F)C[C@H]1C(=O)N[C@@H](c1ccccc1)c1ccc(C(C)C)cc1)C2 (stereo partly drawn) [Compound 175, (2S,4R)-1-{8-acetyl-8-azabicyclo[3.2.1]octane-3-carbonyl}-4-fluoro-N-[(S)-phenyl[4-(propan-2-yl)phenyl]methyl]pyrrolidine-2-carboxamide]",0.582
7,"CC(=O)NCC(=O)N1CCC[C@H]1C(=O)NC(c1ccc(C2CC2)c(F)c1)c1ccn[nH]1 (single isomer, unassigned) [Compound 615, (2S)-N-[(R) or (S)-(4-cyclopropyl-3-fluorophenyl)(1H-pyrazol-5-yl)methyl]-1-(2-acetamidoacetyl) pyrrolidine-2-carboxamide]",1.58
8,"CC(C)c1ccc([C@@H](NC(=O)[C@@H]2C[C@@H](F)CN2C(=O)c2cc(-c3ccncc3)[nH]n2)c2ccccc2)cc1 [Compound 78, (2S,4R)-4-fluoro-N-[(S)-phenyl[4-(propan-2-yl)phenyl]methyl]-1-[5-(pyridin-4-yl)-1H-pyrazole-3-carbonyl]pyrrolidine-2-carboxamide]",0.953
9,"CC(C)c1ccc([C@H](NC(=O)[C@@H]2C[C@@H](F)CN2C(=O)Cc2nnn[nH]2)c2ccccc2)cc1F [Compound 329, (2S,4R)-4-fluoro-N-[(R)-[3-fluoro-4-(propan-2-yl)phenyl](phenyl)methyl]-1-[2-(1H-1,2,3,4-tetrazol-5-yl)acetyl]pyrrolidine-2-carboxamide]",0.336
10,"Cc1cc(CC(=O)N2C[C@H](F)C[C@H]2C(=O)N[C@@H](c2ccccc2)c2ccc(C(C)C)cc2)[nH]n1 [Compound 54, (2S,4R)-4-fluoro-1-[2-(3-methyl-1H-pyrazol-5-yl)acetyl]-N-[(S)-phenyl[4-(propan-2-yl)phenyl]methyl]pyrrolidine-2-carboxamide]",0.047
11,"CC(C)c1ccc([C@@H](NC(=O)[C@@H]2C[C@@H](F)CN2C(=O)C(C)n2cccn2)c2ccccc2)cc1 (stereo partly drawn) [Compound 43, (2S,4R)-4-fluoro-N-[(S)-phenyl[4-(propan-2-yl)phenyl]methyl]-1-[2-(1H-pyrazol-1-yl)propanoyl]pyrrolidine-2-carboxamide]",0.091
12,"COCc1oncc1C(=O)N1C[C@H](F)C[C@H]1C(=O)N[C@@H](c1ccccc1)c1ccc(C(C)C)cc1 [Compound 82, (2S,4R)-4-fluoro-1-[5-(methoxymethyl)-1,2-oxazole-4-carbonyl]-N-[(S)-phenyl[4-(propan-2-yl)phenyl]methyl]pyrrolidine-2-carboxamide]",0.504
13,"CC(C)c1ccc([C@@H](NC(=O)[C@@H]2C[C@@H](F)CN2C(=O)Cc2cnoc2)c2ccccc2)cc1 [Compound 230, (2S,4R)-4-fluoro-1-[2-(1,2-oxazol-4-yl)acetyl]-N-[(S)-phenyl[4-(propan-2-yl)phenyl]methyl]pyrrolidine-2-carboxamide]",0.117
14,"CCc1nc(C(=O)N2C[C@H](F)C[C@H]2C(=O)N[C@@H](c2ccccc2)c2ccc(C(C)C)cc2)co1 [Compound 42, (2S,4R)-1-(2-ethyl-1,3-oxazole-4-carbonyl)-4-fluoro-N-[(S)-phenyl[4-(propan-2-yl)phenyl]methyl]pyrrolidine-2-carboxamide]",0.495
15,"CC(C)c1ccc([C@@H](NC(=O)[C@@H]2C[C@@H](F)CN2C(=O)CCc2cccnc2)c2ccccc2)cc1 [Compound 66, (2S,4R)-4-fluoro-N-[(S)-phenyl[4-(propan-2-yl)phenyl]methyl]-1-[3-(pyridin-3-yl)propanoyl]pyrrolidine-2-carboxamide]",0.082
16,"CC(C)c1ccc([C@@H](NC(=O)[C@@H]2C[C@@H](F)CN2C(=O)CCc2cnc[nH]2)c2ccccc2)cc1 [Compound 45, (2S,4R)-4-fluoro-1-[3-(1H-imidazol-5-yl)propanoyl]-N-[(S)-phenyl[4-(propan-2-yl)phenyl]methyl]pyrrolidine-2-carboxamide]",0.058
17,"CC(C)c1cnc(C(NC(=O)[C@@H]2C[C@@H](F)CN2C(=O)Cc2cnn[nH]2)c2ccccc2)cc1C(F)F (single isomer, unassigned) [Compound 606, (2S,4R)-N-[(S) or (R)-[4-(difluoromethyl)-5-(propan-2-yl)pyridin-2-yl](phenyl)methyl]-4-fluoro-1-[2-(1H-1,2,3-triazol-5-yl)acetyl]pyrrolidine-2-carboxamide]",1.13
18,"NCc1nnc(CC(=O)N2C[C@H](F)C[C@H]2C(=O)N[C@@H](c2ccccc2)c2ccc(C3CC3)c(F)c2)o1 [Compound 489, (2S,4R)-1-{2-[5-(aminomethyl)-1,3,4-oxadiazol-2-yl]acetyl}-N-[(S)-(4-cyclopropyl-3-fluorophenyl)(phenyl)methyl]-4-fluoropyrrolidine-2-carboxamide]",0.353
19,"CC(C)c1ccc([C@@H](NC(=O)[C@@H]2C[C@@H](F)CN2C(=O)C(C)(C)c2ccccn2)c2ccccc2)cc1 [Compound 92, (2S,4R)-4-fluoro-1-[2-methyl-2-(pyridin-2-yl)propanoyl]-N-[(S)-phenyl[4-(propan-2-yl)phenyl]methyl]pyrrolidine-2-carboxamide]",0.439
20,"O=C(NC(c1ccccc1)c1ccc(C2CCC2)c(F)c1)[C@@H]1C[C@@H](F)CN1C(=O)Cc1cnn[nH]1 (single isomer, unassigned) [Compound 673, (2S,4R)-N-[(R) or (S)-(4-cyclobutyl-3-fluorophenyl)(phenyl)methyl]-4-fluoro-1-[2-(1H-1,2,3-triazol-5-yl)acetyl]pyrrolidine-2-carboxamide]",1.74
21,"CC(C)c1ccc([C@@H](NC(=O)[C@@H]2C[C@@H](F)CN2C(=O)C(=O)N(C)C)c2ccccc2)cc1 [Compound 115, (2S,4R)-1-[(dimethylcarbamoyl)carbonyl]-4-fluoro-N-[(S)-phenyl[4-(propan-2-yl)phenyl]methyl]pyrrolidine-2-carboxamide]",0.493
22,"CC(=O)N1CCC(C)(C(=O)N2C[C@H](F)C[C@H]2C(=O)N[C@@H](c2ccccc2)c2ccc(C(C)C)cc2)C1 (stereo partly drawn) [Compound 152, (2S,4R)-1-(1-acetyl-3-methylpyrrolidine-3-carbonyl)-4-fluoro-N-[(S)-phenyl[4-(propan-2-yl)phenyl]methyl]pyrrolidine-2-carboxamide]",0.132
23,"Cc1cc(C(C)C)ccc1[C@@H](NC(=O)[C@@H]1C[C@@H](F)CN1C(=O)Cc1ncco1)c1ccccc1 [Compound 663, (2S,4R)-4-fluoro-N-[(S)-[2-methyl-4-(propan-2-yl)phenyl](phenyl)methyl]-1-[2-(1,3-oxazol-2-yl)acetyl]pyrrolidine-2-carboxamide]",2.02
